The target of this assay is T1, hNLRP3 (Homo sapiens, UniProt Q96P20).
T1 construct: THP-1 cells were purchased from the American Type Culture Collection; host or cells: THP-1 cells, PMA-differentiated, stimulated with gramicidin
T1 sequence (Q96P20 whole entry): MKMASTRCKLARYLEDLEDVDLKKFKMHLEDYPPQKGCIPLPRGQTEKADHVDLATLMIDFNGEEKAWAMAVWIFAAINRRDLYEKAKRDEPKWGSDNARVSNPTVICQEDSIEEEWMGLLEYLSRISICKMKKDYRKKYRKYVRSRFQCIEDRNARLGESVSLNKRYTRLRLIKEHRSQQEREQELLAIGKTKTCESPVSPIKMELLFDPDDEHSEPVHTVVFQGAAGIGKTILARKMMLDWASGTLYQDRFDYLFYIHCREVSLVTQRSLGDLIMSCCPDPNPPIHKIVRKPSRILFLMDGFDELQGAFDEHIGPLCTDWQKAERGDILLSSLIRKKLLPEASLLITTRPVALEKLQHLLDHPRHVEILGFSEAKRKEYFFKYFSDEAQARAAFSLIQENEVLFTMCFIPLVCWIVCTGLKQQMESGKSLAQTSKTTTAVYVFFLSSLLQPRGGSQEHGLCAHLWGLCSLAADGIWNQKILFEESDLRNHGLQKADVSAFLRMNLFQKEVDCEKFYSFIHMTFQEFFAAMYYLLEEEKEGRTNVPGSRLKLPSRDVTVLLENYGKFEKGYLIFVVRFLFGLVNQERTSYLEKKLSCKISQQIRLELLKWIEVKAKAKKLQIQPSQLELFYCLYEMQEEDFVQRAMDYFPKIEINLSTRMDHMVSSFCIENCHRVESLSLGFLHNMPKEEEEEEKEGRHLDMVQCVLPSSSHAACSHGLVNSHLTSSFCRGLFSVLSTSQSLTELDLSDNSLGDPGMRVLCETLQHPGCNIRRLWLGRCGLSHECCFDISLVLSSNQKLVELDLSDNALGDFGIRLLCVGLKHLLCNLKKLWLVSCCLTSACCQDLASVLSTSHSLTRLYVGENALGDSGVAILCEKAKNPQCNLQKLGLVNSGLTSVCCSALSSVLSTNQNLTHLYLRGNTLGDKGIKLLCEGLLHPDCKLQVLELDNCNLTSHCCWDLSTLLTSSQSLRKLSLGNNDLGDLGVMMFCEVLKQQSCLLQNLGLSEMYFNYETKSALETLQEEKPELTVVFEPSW
The assay is described as follows: IL-1β production in PMA-differentiated THP-1 cells stimulated with gramicidin (hTHP-1 assay). Format: cell-based. As to conditions: read-out: NLRP3 Antagonist, hNLRP3 (THP-1, IL-1b) Normalized: GeoMean IC50. Here is the method: Procedure 1: IL-1β Production in PMA-Differentiated THP-1 Cells Stimulated with Gramicidin.
THP-1 cells were purchased from the American Type Culture Collection and sub-cultured according to instructions from the supplier. […] Prior to the experiment, compounds were dissolved in dimethyl sulfoxide (DMSO) to generate a 30 mM stock. […] DMSO was backfilled in the plate to achieve a final DMSO assay concentration of 0.37%. The plate was then sealed and stored at room temperature until required.
THP-1 cells were treated with PMA (Phorbol 12-myristate 13-acetate) (20 ng/ml) for 16-18 hours. On the day of the experiment the media was removed and adherent cells were detached with trypsin for 5 minutes.
Procedure 2: IL-1β Production in PMA-Differentiated THP-1 Cells Stimulated with Gramicidin.
THP-1 cells were purchased from the American Type Culture Collection and sub-cultured according to instructions from the supplier. […] Prior to the experiment THP-1 were treated with PMA (Phorbol 12-myristate 13-acetate) (20 ng/ml) for 16-18 hours. Compounds were dissolved in dimethyl sulfoxide (DMSO) to generate a 30 mM stock. On the day of the experiment the media was removed and adherent cells were detached with trypsin for 5 minutes. […] Final DMSO concentration was at 0.37%. Cells were incubated with compounds for 1 hour and then stimulated with gramicidin (5 μM) (Enzo) for 2 hours. Plates were then centrifuged at 340 g for 5 min. Cell free supernatant (40 μL) was collected using a 96-channel PlateMaster (Gilson) and the production of IL-1β was evaluated by HTRF (cisbio).
1. Experimental procedure
1.2 Compound Preparation • Prepare the 3-fold serial dilution of the compounds with DMSO in a 384-well LDV Microplate using TECAN EVO system to generate the compound source plate with 10 concentrations. Top concentration is 30 mM. FIG. 5 depicts the layout of the microplate.
FIG. 5 depicts the layout of the plates: HC: 100 μM CRID3 (MCC950)+5 μM gramicidin LC: 5 μM Gramicidin.
1.5 IL-1β Detection • 1) Homogenize the 5× diluent #5 with a vortex and add 1 volume of stock solution in 4 volumes of distilled water. • 2) Thaw 20× stock solution of anti-IL1β-Cryptate-antibody and anti-IL1β XL-antibody. […] 2. Data Analysis: • 1.
On to `CC(C)(O)c1ccc2c(c1)S(=O)(=NC(=O)Nc1c3c(cc4c1CCC4)CCC3)NC2=O` (single isomer, unassigned) [Compound 127a, (R or S)-1-(1,2,3,5,6,7-hexahydro-s-indacen-4-yl)-3-(6-(2-hydroxypropan-2-yl)-1-oxido-3-oxo-2,3-dihydro-1l4-benzo[d]isothiazol-1-ylidene)urea], for which the 50% inhibitory concentration (IC50) – broadly, the concentration needed to halve the response being measured – was 0.04 to 0.2 µM.

For the compound `O=C(N=S1(=O)CC2(CN1)COC2)Nc1c2c(cc3c1CCC3)CCC2` (single isomer, unassigned) [Compound 139a, (S or R)-1-(1,2,3,5,6,7-hexahydro-s-indacen-4-yl)-3-(6-oxido-2-oxa-6l6-thia-7-azaspiro[3.4]octan-6-ylidene)urea], the IC50 was above 30 µM.

`CC1(C)CS(=O)(=NC(=O)Nc2c3c(cc4c2CCC4)CCC3)NC1=O` (single isomer, unassigned) [Compound 102a, (S or R)-1-(4,4-dimethyl-1-oxido-3-oxo-1l6-isothiazolidin-1-ylidene)-3-(1,2,3,5,6,7-hexahydro-s-indacen-4-yl)urea]: the IC50 is 0.2 to 1 µM.

For the compound `CC(C)(O)c1ccc2c(c1)S(=O)(=NC(=O)Nc1c3c(nc4c1CCC4(C)C)CCC3)NC2=O` (stereo not drawn) [Compound 118, 1-(3,3-dimethyl-1,2,3,5,6,7-hexahydrodicyclopenta[b,e]pyridin-8-yl)-3-(6-(2-hydroxypropan-2-yl)-1-oxido-3-oxo-2,3-dihydro-1l4-benzo[d]isothiazol-1-ylidene)urea], the IC50 is 1 to 5 µM.

For the compound `CC(C)(O)c1ccc2c(c1)S(=O)(=NC(=O)Nc1c3c(cc4c1CCC4)CCC3)NC2=O` (single isomer, unassigned) [Compound 127b, (S or R)-1-(1,2,3,5,6,7-hexahydro-s-indacen-4-yl)-3-(6-(2-hydroxypropan-2-yl)-1-oxido-3-oxo-2,3-dihydro-1l4-benzo[d]isothiazol-1-ylidene)urea], the IC50 was 5 to 30 µM.

Take `CN(C)Cc1ccc2c(c1)C(=O)NS2(=O)=NC(=O)Nc1c2c(cc3c1CCC3)CCC2` (stereo not drawn) [Compound 125, 1-{5-[(dimethylamino)methyl]-1,3-dioxo-2,3-dihydro-1$l6,2-benzothiazol-1-ylidene}-3-(1,2,3,5,6,7-hexahydro-s-indacen-4-yl)urea]: the IC50 was in the range of 5 to 30 µM.

As for `COC(=O)Cc1ccc2c(c1)S(=O)(=NC(=O)Nc1c3c(cc4c1CCC4)CCC3)NC2=O` (stereo not drawn) [Compound 209, methyl 2-(1-(((1,2,3,5,6,7-hexahydro-s-indacen-4-yl)carbamoyl)imino)-1-oxido-3-oxo-2,3-dihydro-1H-1l4-benzo[d]isothiazol-6-yl)acetate], the IC50 lay within 5 to 30 µM.

For the compound `O=C(N=S1(=O)NC(=O)c2ccc(Br)cc21)Nc1c2c(cc3c1CCC3)CCC2` (single isomer, unassigned) [Compound 103b, (S or R)-1-(6-bromo-1-oxido-3-oxo-2,3-dihydro-1l4-benzo[d]isothiazol-1-ylidene)-3-(1,2,3,5,6,7-hexahydro-s-indacen-4-yl)urea], the IC50 was in the range of 5 to 30 µM.

As for `CC(C)(O)c1ccc2c(c1)S(=O)(=NC(=O)Cc1c3c(cc4c1CCC4)CCC3)NC2=O` (single isomer, unassigned) [Compound 115a, (S or R)-2-(1,2,3,5,6,7-hexahydro-s-indacen-4-yl)-N-(6-(2-hydroxypropan-2-yl)-1-oxido-3-oxo-2,3-dihydro-1l4-benzo[d]isothiazol-1-ylidene)acetamide], the IC50 lay within 5 to 30 µM.

Regarding `CC(C)(O)c1ccc2c(c1)S(=O)(=NC(=O)Nc1c3c(cc4c1CC4)CCC3)NC2=O` (single isomer, unassigned) [Compound 112b, (S or R)-1-(6-(2-hydroxypropan-2-yl)-1-oxido-3-oxo-2,3-dihydro-1l4-benzo[d]isothiazol-1-ylidene)-3-(2,4,5,6-tetrahydro-1H-cyclobuta[f]inden-3-yl)urea], the IC50 was in the range of 1 to 5 µM.

On to `CN1C(=O)c2ccccc2S1(=O)=NC(=O)Nc1c2c(cc3c1CCC3)CCC2` (stereo not drawn) [Compound 116], for which the IC50 is above 30 µM.

`CC(C)(O)c1ccc2c(c1)S(=O)(=NC(=O)Nc1c3c(nc4c1CCC4)CCC3)NC2=O` (stereo not drawn) [Compound 117]: the IC50 is 1 to 5 µM.

Take `O=C(N=S1(=O)NC(=O)c2ccc(CN3CCC3)cc21)Nc1c2c(cc3c1CCC3)CCC2` (stereo not drawn) [Compound 204, 1-(6-(azetidin-1-ylmethyl)-1-oxido-3-oxo-2,3-dihydro-1l4-benzo[d]isothiazol-1-ylidene)-3-(1,2,3,5,6,7-hexahydro-s-indacen-4-yl)urea]: the IC50 was in the range of 0.2 to 1 µM.

Take `O=C(N=S1(=O)NC(=O)c2ccccc21)Nc1c2c(cc3c1CCC3)CCC2` (single isomer, unassigned) [Compound 129b, 3-[(1S or 1R)-1,3-dioxo-2,3-dihydro-1-^λ-6,2-benzothiazol-1-ylidene]-1-(1,2,3,5,6,7-hexahydro-s-indacen-4-yl)urea]: the IC50 lay in the range of 5 to 30 µM.

For the compound `CC(C)c1cc(C(F)F)cc(C(C)C)c1CC(=O)N=S1(=O)NC(=O)c2cc(CN(C)C)ccc21` (stereo not drawn) [Compound 124, 2-[4-(difluoromethyl)-2,6-bis(propan-2-yl)phenyl]-N-{5-[(dimethylamino)methyl]-1,3-dioxo-2,3-dihydro-1$l6,2-benzothiazol-1-ylidene}acetamide], the IC50 is above 30 µM.

With `CN1Cc2ccccc2S1(=O)=NC(=O)Nc1c2c(cc3c1CCC3)CCC2` (single isomer, unassigned) [Compound 107a], the IC50 was above 30 µM.

On to `O=C1CCCS(=O)(=NC(=O)Nc2c3c(cc4c2CCC4)CCC3)N1` (single isomer, unassigned) [Compound 113a, (S or R)-1-(1,2,3,5,6,7-hexahydro-s-indacen-4-yl)-3-(1-oxido-3-oxo-1l6,2-thiazinan-1-ylidene)urea], for which the IC50 lay within 0.2 to 1 µM.

Take `Cc1c(C2CC2)nc2c(c1NC(=O)N=S1(=O)NC(=O)c3ccc(C(C)(C)O)cc31)CCC2` (single isomer, unassigned) [Compound 138, (S or R)-1-(2-cyclopropyl-3-methyl-6,7-dihydro-5H-cyclopenta[b]pyridin-4-yl)-3-(6-(2-hydroxypropan-2-yl)-1-oxido-3-oxo-2,3-dihydro-1l4-benzo[d]isothiazol-1-ylidene)urea]: the IC50 is 0.2 to 1 µM.

With `O=C(N=S1(=O)NC(=O)c2ccc(-n3cccn3)cc21)Nc1c2c(cc3c1CCC3)CCC2` (single isomer, unassigned) [Compound 211b, (R or S)-1-(1,2,3,5,6,7-hexahydro-s-indacen-4-yl)-3-(1-oxido-3-oxo-6-(1H-pyrazol-1-yl)-2,3-dihydro-1l4-benzo[d]isothiazol-1-ylidene)urea], the IC50 was above 30 µM.

Take `CC(C)(O)c1ccc2c(c1)S(=O)(=NC(=O)Nc1c3c(nc(C4CC4)c1C1CC1)CCC3)NC2=O` (single isomer, unassigned) [Compound 106b, 1(S or R)-1-(2,3-dicyclopropyl-6,7-dihydro-5H-cyclopenta[b]pyridin-4-yl)-3-(6-(2-hydroxypropan-2-yl)-1-oxido-3-oxo-2,3-dihydro-1l4-benzo[d]isothiazol-1-ylidene)urea]: the IC50 is above 30 µM.

Consider `CC(C)(O)c1ccc2c(c1)C(=O)NS2(=O)=NC(=O)Nc1c2c(cc3c1CCC3)CCC2` (single isomer, unassigned) [Compound 121a, (R or S)-1-(1,2,3,5,6,7-hexahydro-s-indacen-4-yl)-3-(5-(2-hydroxypropan-2-yl)-1-oxido-3-oxo-2,3-dihydro-1l4-benzo[d]isothiazol-1-ylidene)urea], for which the IC50 was in the range of 0.2 to 1 µM.

The values above are taken from patent publication US12134611B2, “Compounds and compositions for treating conditions associated with NLRP activity” (Novartis AG, priority 2018, dated 2024).
